According to ChEMBL document CHEMBL1201862, “PubChem BioAssay data set” (2004):
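The compound was tested at five concentrations on cells cultured in 96-well plates, with a 48-hour exposure period. At the GI50, growth is halved.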 Activity calls are given as the source filed them. Rule as the data show it: active = GI50 up to about 1.1 µM and inactive = higher.

Tests used:
Assay in all cases: NCI tumour cell line growth inhibition, 48 h
M14 = test system: M14
NCI-H23 = test system: NCI-H23
MDA-N = test system: MDA-N
CAKI-1 = test system: CAKI-1
TK-10 = test system: TK-10
SNB-75 = test system: SNB-75
K562 = test system: K562
SNB-19 = test system: SNB-19
A498 = test system: A498
HCC 2998 = test system: HCC 2998
KM12 = test system: KM12
COLO 205 = test system: COLO 205
MOLT-4 = test system: MOLT-4
UACC-257 = test system: UACC-257
SF-295 = test system: SF-295
SK-MEL-2 = test system: SK-MEL-2
Hs-578T = test system: Hs-578T
NCI/ADR-RES = test system: NCI/ADR-RES
SF-539 = test system: SF-539
DU-145 = test system: DU-145

Measured: GI50

OC/C=C/[C@H](OCc1ccccc1)[C@H](/C=C/CO)OCc1ccccc1
inactive: M14 76.6 µM | NCI-H23 47.8 µM | MDA-N 36 µM | CAKI-1 > 100 µM | TK-10 73.1 µM | SNB-75 32.7 µM | K562 24.8 µM | SNB-19 31.2 µM | A498 > 100 µM | HCC 2998 50.2 µM | KM12 41.8 µM | COLO 205 59.3 µM | MOLT-4 13.7 µM | UACC-257 75.2 µM | SF-295 32.5 µM | SK-MEL-2 37.4 µM | Hs-578T 47.4 µM | NCI/ADR-RES 32.4 µM | SF-539 > 100 µM | DU-145 81.1 µM

CC(C)[Si]1(C(C)C)OCC2OC(N3C(=O)NC(=O)C[C@@H]3C(O)c3ccccc3)CC2O[Si](C(C)C)(C(C)C)O1 (stereo not given in full)
inactive: M14 12.7 µM | NCI-H23 7.98 µM | MDA-N 4.3 µM | CAKI-1 15.4 µM | TK-10 9.89 µM | SNB-75 4.54 µM | K562 2.76 µM | SNB-19 9.93 µM | A498 7.21 µM | HCC 2998 2.05 µM | KM12 2.4 µM | COLO 205 9.86 µM | MOLT-4 2.31 µM | UACC-257 4.85 µM | SF-295 4.51 µM | SK-MEL-2 13.4 µM | Hs-578T 3.3 µM | NCI/ADR-RES 5.32 µM | SF-539 17 µM | DU-145 13.2 µM

CC1CN1C(=O)NCCCCCCNC(=O)N1CC1C (stereo not given)
inactive: M14 68.2 µM | NCI-H23 27.3 µM | MDA-N > 100 µM | CAKI-1 48.4 µM | TK-10 > 100 µM | SNB-75 62.7 µM | K562 > 97.5 µM | SNB-19 > 86.7 µM | A498 > 100 µM | HCC 2998 > 100 µM | KM12 > 100 µM | COLO 205 > 100 µM | MOLT-4 15.5 µM | UACC-257 > 100 µM | SF-295 54.3 µM | SK-MEL-2 > 100 µM | Hs-578T > 100 µM | NCI/ADR-RES 78.7 µM | SF-539 35 µM | DU-145 22.2 µM

CCN(C(=O)N[C@@H](C)C(=O)N[C@@H](Cc1ccccc1)C(=O)OC)c1ccccc1
inactive: M14 34.4 µM | NCI-H23 > 100 µM | MDA-N > 100 µM | CAKI-1 > 100 µM | TK-10 > 100 µM | SNB-75 54 µM | K562 32 µM | SNB-19 > 100 µM | A498 > 100 µM | HCC 2998 81.5 µM | KM12 > 100 µM | COLO 205 31.5 µM | MOLT-4 > 100 µM | UACC-257 49.1 µM | SF-295 79.6 µM | SK-MEL-2 28.6 µM | Hs-578T 70.6 µM | NCI/ADR-RES > 100 µM | SF-539 34.5 µM | DU-145 46 µM

Cn1cnc2c1c(=O)n(CCNCCO)c(=O)n2C
inactive: M14 > 100 µM | NCI-H23 > 100 µM | MDA-N > 100 µM | CAKI-1 > 100 µM | TK-10 > 100 µM | SNB-75 > 100 µM | K562 > 100 µM | SNB-19 > 100 µM | A498 > 100 µM | HCC 2998 > 100 µM | KM12 > 100 µM | COLO 205 > 100 µM | MOLT-4 > 100 µM | UACC-257 > 100 µM | SF-295 > 100 µM | SK-MEL-2 > 100 µM | Hs-578T > 100 µM | NCI/ADR-RES > 100 µM | SF-539 > 100 µM | DU-145 > 100 µM

C[C@@H]1CCC([C@@H](C)[C@H]2CC[C@H]3[C@@H]4CC[C@H]5C[C@@H](O)CC[C@]5(C)[C@H]4CC[C@]23C)=NC1
inactive: M14 4.73 µM | NCI-H23 17.7 µM | MDA-N 9.53 µM | CAKI-1 12.7 µM | TK-10 34.7 µM | SNB-75 19.1 µM | K562 3.68 µM | SNB-19 10.6 µM | A498 > 70.1 µM | HCC 2998 6.52 µM | KM12 5.06 µM | COLO 205 8.15 µM | MOLT-4 13 µM | UACC-257 25.3 µM | SF-295 4.71 µM | SK-MEL-2 14.1 µM | Hs-578T 33.7 µM | NCI/ADR-RES 8.53 µM | SF-539 15 µM | DU-145 > 47 µM
